Data reported in patent US11452758B2, “Antimicrobial peptide derived from LL37 peptide and uses thereof” (INDUSTRY-ACADEMIC COOPERATION FOUNDATION, CHOSUN UNIVERSITY, priority 2018, dated 2022).
Converted amounts (≈) assume the structure as drawn. Where two headings read alike, the source gives them in different places. Where a SMILES comes first, the peptide text is derived from it.

Columns and labels:
[1] = Cytotoxicity in normal cell line (MTT); assay type: cell-based, human; settings: human
Description: To determine the cytotoxicity of the peptides produced by the method of Example 1 in normal cell line, cytotoxicity was measured by using normal human keratinocyte cell line (HaCaT) and normal human fibroblast cell line (Hs27).
Specifically, normal human keratinocyte (HaCaT) cells and normal human fibroblast (Hs27) cells, which have been cultured in DMEM medium containing 10% FBS (fetal bovine serum), were aliquoted in a microtiter plate to have 1×10^4 cells per well. After culturing them for 24 hours, the cells were subjected to a treatment with LL37, LL37-1, LL37-2, LL37-3 or LL37-4 peptide, each at concentration of 0.5, 1, 2, 4, 8, 16 or 32 μM/well, followed by reaction for 24 hours in a 5% CO2 incubator. After culture, a reaction solution containing 5 mg/ml MTT (Thiazolyl Blue Tetrazolium Bromide) dissolved in phosphate buffered saline (PBS) was added in an amount of 10 μl to each well and the reaction was allowed to occur for 1 hour. After that, the supernatant was discarded, and, by dissolving MTT crystals that are formed by adding 200 μl DMSO (dimethyl sulfoxide), the absorbance at 570 nm was measured to determine the cell survival ability.

A. baumannii #8 = assay type: cell-based, Acinetobacter baumannii
Summary of the method: (§1)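 Broth microdilution MIC: bacteria grown to mid-log phase in Mueller Hinton Broth, diluted to 2×10^5 cells/50 μl and mixed with twofold serial dilutions of peptide. After 18 h incubation at 37° C, absorbance at 600 nm was read; MIC taken as lowest peptide concentration preventing growth.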

A. baumannii #19 = assay type: cell-based, Acinetobacter baumannii
Summary of the method: as §1

A. baumannii #9 = assay type: cell-based, Acinetobacter baumannii
Summary of the method: as §1

A. baumannii #3 = assay type: cell-based, Acinetobacter baumannii
Summary of the method: as §1

A. baumannii #12 = assay type: cell-based, Acinetobacter baumannii
Summary of the method: as §1

P. aeruginosa ATCC 27853 = assay type: cell-based, Pseudomonas aeruginosa
From the text: To compare the antimicrobial activity among the peptides produced by the method of Example 1, the inventors of the present invention measured the minimal growth inhibitory concentration (MIC), which is minimum concentration of the peptide not allowing any […] of bacterial cells.
Specifically, the bacterial strains described in the following Table 2 were purchased and cultured to a mid-log phase in MHB (Mueller Hinton Broth) medium. Then, after dilution to bacterial cell concentration of 2×10^5 cells/50 μl, the cells were inoculated to a microtiter plate (NUNC, USA). Thereafter, LL37-1, LL37-2, LL37-3 or LL37-4 peptide which has been synthesized in Example 1 above was subjected to serial dilution, ½ times for each, in a 96-well plate. After adding the peptides in an amount of 50 μl to the cell plate, the cells were cultured for 18 hours at 37° C. By using a microtiter plate reader (Merck Elisa reader, Germany), the absorbance was measured at a wavelength of 600 nm to determine the MIC value of each bacterial strain. As a control group, LL37 as a mother peptide was used and subjected to the same process as above to determine the MIC value of each strain.

[2] = system: Acinetobacter baumannii KCTC 2508; test: Flow cytometry after PI staining (bacteria membrane); assay type: cell-based; settings: peptide at concentration of MIC, 30 minutes at 37° C.
Description: To determine whether or not the peptides prepared by the method of Example 1 have any effect on bacteria membrane, an analysis was made by flow cytometry.
After that, the supernatant was removed by centrifuge (10,000 rpm) and stained with propidium iodide (PI, concentration of 10 μg/ml) for 30 minutes at 4° C. Thereafter, unbound propidium iodide was removed by centrifuge, and the problem of cell aggregation phenomenon was solved by adding physiological saline (PBS) in an amount of 1 ml.

[3] = system: Acinetobacter baumannii KCTC 2508; assay type: cell-based
Description: To determine the activity of the peptides, which have been prepared by the method of Example 1, in the presence of trypsin as one type of proteases, peptide stability against protease was determined by radial diffusion assay.
Specifically, among the bacterial strains that are described in the above Table 2, Acinetobacter baumannii KCTC 2508 cells were cultured to a mid-log phase in MHB medium, and, after diluting the cells to a cell concentration of 2×10^5 cells/10 ml, the cells were admixed with agarose which has been adjusted to final concentration of 1% and then evenly spread and solidified on a Petri dish. After that, the peptide adjusted to a concentration of 100 μg/ml was admixed with 10.7 nM trypsin and reacted for 10 minutes at 37° C. After applying a paper disk (diameter: 6 mm) on the solidified Petri dish, the peptide obtained after the reaction with trypsin was aliquoted thereto in an amount of 25 μl. After culture for 18 hours at 37° C., diameter of the clear zone around the paper disk was measured so that the level of antimicrobial activity for Acinetobacter baumannii KCTC 2508 was determined.

Structure (SMILES) | viability at 24 h, 0.5 µM ([1]; HaCaT keratinocyte cells) [%] | viability at 24 h, 1 µM ([1]; HaCaT keratinocyte cells) [%] | viability at 24 h, 2 µM ([1]; HaCaT keratinocyte cells) [%] | viability at 24 h, 4 µM ([1]; HaCaT keratinocyte cells) [%] | viability at 24 h, 8 µM ([1]; HaCaT keratinocyte cells) [%] | viability at 24 h, 16 µM ([1]; HaCaT keratinocyte cells) [%] | viability at 24 h, 32 µM ([1]; HaCaT keratinocyte cells) [%] | viability at 24 h, 0.5 µM ([1]; Hs27 fibroblast cells) [%] | viability at 24 h, 1 µM ([1]; Hs27 fibroblast cells) [%] | viability at 24 h, 2 µM ([1]; Hs27 fibroblast cells) [%] | viability at 24 h, 4 µM ([1]; Hs27 fibroblast cells) [%] | viability at 24 h, 8 µM ([1]; Hs27 fibroblast cells) [%] | viability at 24 h, 16 µM ([1]; Hs27 fibroblast cells) [%] | viability at 24 h, 32 µM ([1]; Hs27 fibroblast cells) [%] | Minimal inhibitory concentration (A. baumannii #8; #8) [µM] | Minimal inhibitory concentration (A. baumannii #19; #19) [µM] | Minimal inhibitory concentration (A. baumannii #9; #9) [µM] | Minimal inhibitory concentration (A. baumannii #3; #3) [µM] | Minimal inhibitory concentration (A. baumannii #12; #12) [µM] | effect on bacteria membrane (PI fluorescence, flow cytometry) [2] | also measured
CC[C@H](C)[C@H](NC(=O)[C@H](CCCNC(=N)N)NC(=O)[C@H](CCC(N)=O)NC(=O)[C@@H](NC(=O)[C@@H](NC(=O)[C@H](CCCNC(=N)N)NC(=O)[C@H](CCCCN)NC(=O)[C@H](Cc1ccccc1)NC(=O)[C@H](CCCCN)NC(=O)[C@@H](N)CCCCN)[C@@H](C)CC)C(C)C)C(=O)N[C@@H](CCCCN)C(=O)N[C@@H](CC(=O)O)C(=O)N[C@@H](Cc1ccccc1)C(=O)N[C@@H](CC(C)C)C(=O)N[C@@H](CCCNC(=N)N)C(=O)N[C@@H](CC(N)=O)C(N)=O [LL37-2, KKFKRIVQRIKDFLRN-NH2] (H-KKFKRIVQRIKDFLRN-NH2) | – | – | – | – | – | – | – | – | – | – | – | – | – | – | – | – | – | – | – | – | viability at 24 h, 0.5 µM ([1]; HaCaT keratinocyte cells, HaCaT, peptide 0.5 μM, 24 hours, MTT, read-out: Cell survival ability): 100%; viability at 24 h, 1 µM ([1]; HaCaT keratinocyte cells, HaCaT, peptide 1 μM, 24 hours, MTT, read-out: Cell survival ability): 106%; viability at 24 h, 2 µM ([1]; HaCaT keratinocyte cells, HaCaT, peptide 2 μM, 24 hours, MTT, read-out: Cell survival ability): 104%; viability at 24 h, 4 µM ([1]; HaCaT keratinocyte cells, HaCaT, peptide 4 μM, 24 hours, MTT, read-out: Cell survival ability): 102%; viability at 24 h, 8 µM ([1]; HaCaT keratinocyte cells, HaCaT, peptide 8 μM, 24 hours, MTT, read-out: Cell survival ability): 101%; viability at 24 h, 16 µM ([1]; HaCaT keratinocyte cells, HaCaT, peptide 16 μM, 24 hours, MTT, read-out: Cell survival ability): 107%; viability at 24 h, 32 µM ([1]; HaCaT keratinocyte cells, HaCaT, peptide 32 μM, 24 hours, MTT, read-out: Cell survival ability): 107%; viability at 24 h, 0.5 µM ([1]; Hs27 fibroblast cells, Hs27, peptide 0.5 μM, 24 hours, MTT, read-out: Cell survival ability): 92%; viability at 24 h, 1 µM ([1]; Hs27 fibroblast cells, Hs27, peptide 1 μM, 24 hours, MTT, read-out: Cell survival ability): 92%; viability at 24 h, 2 µM ([1]; Hs27 fibroblast cells, Hs27, peptide 2 μM, 24 hours, MTT, read-out: Cell survival ability): 94%; viability at 24 h, 4 µM ([1]; Hs27 fibroblast cells, Hs27, peptide 4 μM, 24 hours, MTT, read-out: Cell survival ability): 91%; viability at 24 h, 8 µM ([1]; Hs27 fibroblast cells, Hs27, peptide 8 μM, 24 hours, MTT, read-out: Cell survival ability): 89%; viability at 24 h, 16 µM ([1]; Hs27 fibroblast cells, Hs27, peptide 16 μM, 24 hours, MTT, read-out: Cell survival ability): 93%; viability at 24 h, 32 µM ([1]; Hs27 fibroblast cells, Hs27, peptide 32 μM, 24 hours, MTT, read-out: Cell survival ability): 97%; Minimal inhibitory concentration (A. baumannii #8; A. baumannii #8, tolerance to antibiotics): 2 µM (≈ 4.18 µg/mL); Minimal inhibitory concentration (A. baumannii #19; A. baumannii #19, tolerance to antibiotics): 2 µM (≈ 4.18 µg/mL); Minimal inhibitory concentration (A. baumannii #9; A. baumannii #9, tolerance to antibiotics): 2 µM (≈ 4.18 µg/mL); Minimal inhibitory concentration (A. baumannii #3; A. baumannii #3, tolerance to antibiotics): 2 µM (≈ 4.18 µg/mL); Minimal inhibitory concentration (A. baumannii #12; A. baumannii #12, tolerance to antibiotics): 2 µM (≈ 4.18 µg/mL); Minimal inhibitory concentration (P. aeruginosa ATCC 27853; P. aeruginosa ATCC 27853, MHB, 18 hours at 37° C.): 8 µM (≈ 16.7 µg/mL)
CC[C@H](C)[C@H](NC(=O)[C@H](CCCNC(=N)N)NC(=O)[C@H](CCC(N)=O)NC(=O)[C@@H](NC(=O)[C@@H](NC(=O)[C@H](CCCNC(=N)N)NC(=O)[C@H](CCCCN)NC(=O)[C@H](Cc1ccccc1)NC(=O)[C@H](CCC(=O)O)NC(=O)[C@@H](N)CCCCN)[C@@H](C)CC)C(C)C)C(=O)N[C@@H](CCCCN)C(=O)N[C@@H](CCCCN)C(=O)N[C@@H](Cc1ccccc1)C(=O)N[C@@H](CC(C)C)C(=O)N[C@@H](CCCNC(=N)N)C(=O)N[C@@H](CC(N)=O)C(N)=O [LL37-3, KEFKRIVQRIKKFLRN-NH2] (H-KEFKRIVQRIKKFLRN-NH2; N-terminus assumed) | 96 | 100 | 101 | 98 | 98 | 104 | 104 | 94 | 92 | 93 | 90 | 91 | 93 | 95 | 2 (≈ 4.21 µg/mL) | 4 (≈ 8.41 µg/mL) | 2 (≈ 4.21 µg/mL) | 4 (≈ 8.41 µg/mL) | 4 (≈ 8.41 µg/mL) | bacteria membrane was damaged | Minimal inhibitory concentration (P. aeruginosa ATCC 27853; ATCC 27853, 18 h): 8 µM (≈ 16.8 µg/mL)
CC[C@H](C)[C@H](NC(=O)[C@H](CCCNC(=N)N)NC(=O)[C@H](CCC(N)=O)NC(=O)[C@@H](NC(=O)[C@@H](NC(=O)[C@H](CCCNC(=N)N)NC(=O)[C@H](CCCCN)NC(=O)[C@H](Cc1ccccc1)NC(=O)[C@H](CCCCN)NC(=O)[C@@H](N)CCCCN)[C@@H](C)CC)C(C)C)C(=O)N[C@@H](CCCCN)C(=O)N[C@@H](CCCCN)C(=O)N[C@@H](Cc1ccccc1)C(=O)N[C@@H](CC(C)C)C(=O)N[C@@H](CCCNC(=N)N)C(=O)N[C@@H](CC(N)=O)C(N)=O [LL37-4, KKFKRIVQRIKKFLRN-NH2] (H-KKFKRIVQRIKKFLRN-NH2; N-terminus assumed) | 100 | 103 | 97 | 96 | 92 | 94 | 101 | 94 | 94 | 97 | 90 | 93 | 96 | 93 | 2 (≈ 4.2 µg/mL) | 4 (≈ 8.41 µg/mL) | 2 (≈ 4.2 µg/mL) | 2 (≈ 4.2 µg/mL) | 2 (≈ 4.2 µg/mL) | bacteria membrane was damaged | Minimal inhibitory concentration (P. aeruginosa ATCC 27853; ATCC 27853, 18 h): 4 µM (≈ 8.41 µg/mL); decrease in clear zone compared to no treatment with trypsin ([3]; KCTC 2508, 18 h): 1.75 mm; antimicrobial activity after reaction with trypsin ([3]; peptide 100 μg/ml with 10.7 nM trypsin, 10 minutes at 37° C., A. baumannii KCTC 2508): showed the antimicrobial activity
